Laboratory results: BindingDB's records for patent US11912668 (Deciphera Pharmaceuticals, 2024)

Legend:
[1] = molecular target: eIF-2-alpha kinase GCN2 (Homo sapiens, UniProt Q9P2K8); experiment: Biochemical Assay for GCN2
Description: Activity of GCN2 kinase was determined using a TR-FRET kinase activity assay (e.g. Riddle et al. Analytical Biochemistry (2006) 356(1) 108-116). Assays were conducted in 384-well plates (13 μL assay volume) using 2 nM GCN2 (Carna Biosciences), 130 nM GFP-EIf2α (Invitrogen), 0.2 mg/mL E. coli tRNA (sigma) and 1 mM ATP in kinase buffer (Invitrogen). Inhibition of GCN2 was measured by adding serial diluted test compound (final assay concentration of 0.5% DMSO) followed by a 3-hour incubation. Tb-peIF2α (pSer52) antibody (Invitrogen) (2 nM final assay concentration) in kinase buffer containing ETDA (final assay concentration of 20 mM) was added. After a 60 min incubation at room temperature, TR-FRET was monitored using an excitation wavelength of 340 nm and emission wavelengths of 490 nm and 520 nm. The emission ratio (520/490) at each compound concentration of was converted to percent inhibition using controls (i.e. reaction with no test compound and reaction with a known inhibitor) and IC50 values were calculated by fitting a four-parameter sigmoidal curve to the data using Prism (GraphPad software).

[2] = molecular target: T1, Eukaryotic translation initiation factor 2-alpha kinase 3 [563-1115] (Homo sapiens, UniProt Q9NZJ5); experiment: Biochemical Assay for PERK
T1 construct: 563-1115
T1 sequence (Q9NZJ5 whole entry): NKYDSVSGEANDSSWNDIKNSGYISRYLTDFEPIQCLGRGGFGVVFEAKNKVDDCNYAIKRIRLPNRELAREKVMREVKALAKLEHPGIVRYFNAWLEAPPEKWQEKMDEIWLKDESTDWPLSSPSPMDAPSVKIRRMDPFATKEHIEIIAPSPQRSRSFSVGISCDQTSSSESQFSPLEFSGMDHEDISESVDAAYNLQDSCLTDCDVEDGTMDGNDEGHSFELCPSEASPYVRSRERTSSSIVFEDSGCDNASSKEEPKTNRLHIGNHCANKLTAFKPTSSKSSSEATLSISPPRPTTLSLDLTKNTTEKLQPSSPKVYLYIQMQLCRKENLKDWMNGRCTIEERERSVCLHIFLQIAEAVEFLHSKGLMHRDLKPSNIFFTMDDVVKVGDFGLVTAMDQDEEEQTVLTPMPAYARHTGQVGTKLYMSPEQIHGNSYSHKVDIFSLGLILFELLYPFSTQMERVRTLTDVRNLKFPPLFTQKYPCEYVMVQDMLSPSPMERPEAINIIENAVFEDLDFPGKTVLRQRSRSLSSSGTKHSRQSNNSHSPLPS
Description: Activity of PERK kinase was determined spectroscopically using a coupled pyruvate kinase/lactate dehydrogenase assay that continuously monitors the ATP hydrolysis-dependent oxidation of NADH (e.g., Schindler et al. Science (2000) 289: 1938-1942). Assays were conducted in 384-well plates (100 μL final volume) using 10 nM PERK (from Beryllium), 0.25 mg/mL Myelin Basic Protein substrate, 1.5 units pyruvate kinase, 2.1 units lactate dehydrogenase, 1 mM phosphoenol pyruvate, 0.28 mM NADH and 1 mM ATP in assay buffer (100 mM Tris, pH 7.5, 15 mM MgCl2, 0.5 mM DTT, 0.004% (w/v) BSA, and 0.004% Triton X-100). Inhibition of PERK was measured by adding serial diluted test compound (final assay concentration of 1% DMSO). A decrease in absorption at 340 nm was monitored continuously for 6 hours at 30° C. on a multi-mode microplate reader (BioTek). The reaction rate was calculated using the 2-3 h time frame. The reaction rate at each concentration of compound was converted to percent inhibition using controls (i.e. reaction with no test compound and reaction with a known inhibitor) and IC50 values were calculated using software routines in Prism (GraphPad software).

Chain of eIF-2-alpha kinase GCN2 (Q9P2K8 whole entry): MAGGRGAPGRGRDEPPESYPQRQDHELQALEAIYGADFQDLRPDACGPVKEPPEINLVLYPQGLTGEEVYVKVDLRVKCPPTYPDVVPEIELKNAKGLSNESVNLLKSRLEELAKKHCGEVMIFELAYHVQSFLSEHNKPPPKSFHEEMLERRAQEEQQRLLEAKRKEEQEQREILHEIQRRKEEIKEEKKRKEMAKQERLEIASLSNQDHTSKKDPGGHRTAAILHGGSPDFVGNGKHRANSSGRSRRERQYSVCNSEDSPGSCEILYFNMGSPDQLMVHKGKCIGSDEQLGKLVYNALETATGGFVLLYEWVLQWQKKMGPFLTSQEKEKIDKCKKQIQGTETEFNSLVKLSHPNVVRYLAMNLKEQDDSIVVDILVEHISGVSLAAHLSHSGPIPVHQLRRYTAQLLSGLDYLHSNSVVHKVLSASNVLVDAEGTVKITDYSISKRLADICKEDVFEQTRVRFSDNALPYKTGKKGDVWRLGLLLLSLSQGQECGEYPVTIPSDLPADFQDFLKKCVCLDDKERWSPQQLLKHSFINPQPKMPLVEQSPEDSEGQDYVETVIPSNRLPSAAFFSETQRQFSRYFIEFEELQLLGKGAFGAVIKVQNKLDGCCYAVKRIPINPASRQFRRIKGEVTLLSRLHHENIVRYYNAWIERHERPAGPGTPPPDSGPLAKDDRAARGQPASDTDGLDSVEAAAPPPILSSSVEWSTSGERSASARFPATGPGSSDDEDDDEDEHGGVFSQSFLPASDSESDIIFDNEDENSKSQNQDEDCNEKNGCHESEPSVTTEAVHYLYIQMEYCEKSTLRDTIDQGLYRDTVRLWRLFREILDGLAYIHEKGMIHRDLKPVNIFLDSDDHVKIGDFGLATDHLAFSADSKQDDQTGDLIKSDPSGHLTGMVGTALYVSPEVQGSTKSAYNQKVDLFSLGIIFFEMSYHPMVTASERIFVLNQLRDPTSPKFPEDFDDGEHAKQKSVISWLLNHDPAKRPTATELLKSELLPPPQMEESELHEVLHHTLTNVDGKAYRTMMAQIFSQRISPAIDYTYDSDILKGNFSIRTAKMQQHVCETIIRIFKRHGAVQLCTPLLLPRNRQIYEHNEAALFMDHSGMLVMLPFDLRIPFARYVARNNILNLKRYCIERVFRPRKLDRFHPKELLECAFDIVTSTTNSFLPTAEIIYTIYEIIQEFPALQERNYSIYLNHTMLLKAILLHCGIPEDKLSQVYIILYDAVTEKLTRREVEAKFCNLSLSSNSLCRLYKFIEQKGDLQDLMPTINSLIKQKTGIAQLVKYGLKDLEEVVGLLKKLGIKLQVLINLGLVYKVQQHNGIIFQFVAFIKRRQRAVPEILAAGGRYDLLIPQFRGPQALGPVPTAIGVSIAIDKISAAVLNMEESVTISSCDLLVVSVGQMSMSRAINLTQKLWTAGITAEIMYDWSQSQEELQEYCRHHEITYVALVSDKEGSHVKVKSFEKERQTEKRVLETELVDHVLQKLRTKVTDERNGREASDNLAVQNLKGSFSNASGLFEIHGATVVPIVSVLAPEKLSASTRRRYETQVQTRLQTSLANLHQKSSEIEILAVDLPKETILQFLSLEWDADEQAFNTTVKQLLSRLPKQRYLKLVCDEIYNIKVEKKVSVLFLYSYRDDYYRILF

Structure (SMILES)	IC50 [1]	IC50 [2]
CNc1ncc2cc(-c3cc(F)cc(NS(=O)(=O)c4cc(Cl)cnc4OC)c3)c(C)nc2n1 [US11912668, Example 65]	< 0.1 µM	
Cc1nc2cc(N)ncc2cc1-c1cccc(NS(=O)(=O)c2cc(Cl)cc(CO)c2Cl)c1F [US11912668, Example 174]	< 0.1 µM	< 0.1 µM
CNc1cc2nc(N)c(-c3cccc(NS(=O)(=O)c4cc(Cl)cc(CO)c4Cl)c3F)cc2cn1 [US11912668, Example 171]	< 0.1 µM	< 0.1 µM
